Assay results reported in publication PMC4948780, “PARP Inhibitors in Clinical Use Induce Genomic Instability in Normal Human Cells” (PLoS ONE, 2016).
Where “and” joins values, the source holds several entries; their conditions need not be identical. Equal entries are not always repeated. Where two headings read alike, the source gives them in different places.

How the values were obtained:
[1] = tested on: EBV-BL; assay: Survival, trypan blue exclusion test of cell viability; format: cell-based, human; conditions: Homo sapiens, 240 h, continuous exposure 10 days, trypan blue exclusion
Description: (§1) Human mammary epithelial cell lines used included non-tumorigenic diploid MCF-10A, HMEC-hTERT and tumorigenic MDA-MB-468 (basal) and MCF-7 (luminal). […] Blood samples were obtained from normal donor participants. The participants provided written informed consent to IRB protocol #95–054 approved by the Institutional Review Board at MSKCC. The original signed consent is then sent to the research participant’s medical record and a copy of the consent is given to the participant. The EBV-transformed B-lymphocyte cell line (EBV-BL) was generated by transformation of peripheral blood mononuclear cells (PBMC) with the B95.8 strain of EBV, as previously described. Primary T cells were generated from PBMC from two normal donors by non-specific activation with phytohemagglutinin and cultured in RPMI1640 and human serum AB for 4–14 days before use. E14 mES cell line was provided by M. Hooper, Brca1^-/- 236.44 mES cell line was provided by B. H. Koller, Brca2^lex1/lex2 mES cell line was provided by P. Hasty and Lexicon Genetics. E14 wild-type, Brca1^-/- 236.44, and Brca2^lex1/lex2 mES cell lines were cultured in standard ES media. Brca1^-/- 236.44 cells express a BRCA1 peptide deleted for sequences encoded by exon 11 [52], while Brca2^lex1/lex2 cells express a BRCA2 peptide deleted for the terminal exon 27 [53]. […] Veliparib and BSI-201 were purchased from Chemie Tek. The compounds were dissolved in DMSO and PBS. For clonogenic survival assays, MCF-10A (1000 cells), HMEC-hTERT (1000 cells), MDA-MB-468 (1500 cells) and mouse ES cell (2000 cells) were seeded, vehicle control or inhibitors were added at the indicated concentration 24 hours after seeding and changed every three days for continuous treatment. At 7–14 days, colonies were fixed with methanol and stained with Giemsa. For EBV-BL (6 × 10^6) and primary T cells (3.6 × 10^6) were continuously exposed to the indicated concentration of drug for 10 days at 0.6 × 10^6 cells/ml. Viable cells were scored by trypan blue exclusion.

[2] = tested on: Brca2^lex1/lex2 mES cells; assay: Clonogenic survival assay, mES cells; format: cell-based, mouse; conditions: for IC50: Mus musculus, read-out: IC50 (clonogenic survival)
Description: as §1

[3] = tested on: Brca1^-/- 236.44 mES cells; assay: Clonogenic survival assay, mES cells; format: cell-based, mouse; conditions: for IC50: Mus musculus, read-out: IC50 (clonogenic survival)
Description: as §1

[4] = tested on: WT E14 mES cells; assay: Clonogenic survival assay, mES cells; format: cell-based; conditions: Mus musculus, read-out: IC50 (clonogenic survival)
Description: as §1

[5] = tested on: EBV-BL; assay: Sister chromatid exchange (SCE) assay, BrdU differential staining; format: cell-based, human
Description: (§2) Human mammary epithelial cell lines used included non-tumorigenic diploid MCF-10A, HMEC-hTERT and tumorigenic MDA-MB-468 (basal) and MCF-7 (luminal). […] Blood samples were obtained from normal donor participants. The participants provided written informed consent to IRB protocol #95–054 approved by the Institutional Review Board at MSKCC. The original signed consent is then sent to the research participant’s medical record and a copy of the consent is given to the participant. The EBV-transformed B-lymphocyte cell line (EBV-BL) was generated by transformation of peripheral blood mononuclear cells (PBMC) with the B95.8 strain of EBV, as previously described. Primary T cells were generated from PBMC from two normal donors by non-specific activation with phytohemagglutinin and cultured in RPMI1640 and human serum AB for 4–14 days before use. E14 mES cell line was provided by M. Hooper, Brca1^-/- 236.44 mES cell line was provided by B. H. Koller, Brca2^lex1/lex2 mES cell line was provided by P. Hasty and Lexicon Genetics. E14 wild-type, Brca1^-/- 236.44, and Brca2^lex1/lex2 mES cell lines were cultured in standard ES media. Brca1^-/- 236.44 cells express a BRCA1 peptide deleted for sequences encoded by exon 11 [52], while Brca2^lex1/lex2 cells express a BRCA2 peptide deleted for the terminal exon 27 [53]. Olaparib was synthesized in the MSKCC Organic chemistry core facility. Veliparib and BSI-201 were purchased from Chemie Tek. The compounds were dissolved in DMSO and PBS. For clonogenic survival assays, MCF-10A (1000 cells), HMEC-hTERT (1000 cells), MDA-MB-468 (1500 cells) and mouse ES cell (2000 cells) were seeded, vehicle control or inhibitors were added at the indicated concentration 24 hours after seeding and changed every three days for continuous treatment. At 7–14 days, colonies were fixed with methanol and stained with Giemsa. For EBV-BL (6 × 10^6) and primary T cells (3.6 × 10^6) were continuously exposed to the indicated concentration of drug for 10 days at 0.6 × 10^6 cells/ml. Viable cells were scored by trypan blue exclusion.
(§3) To prepare metaphase spreads, exponentially growing cells were treated with 0.1–0.3 μg/ml of colcemid for 1–6 hr. Cells were collected and incubated in hypotonic solution (0.56% KCl), fixed in methanol: acetic acid (3:1), spotted to slides and air-dried. To measure chromosomal aberrations, the slides were stained with 2% Giemsa/Sorensen’s buffer. To visualize SCEs, the doubling time for each cell type was determined. Cells were incubated with 10 μM BrdU for two cell cycles. After metaphase spreads were prepared, the slides were treated with 0.5 μg/ml Hoechst 33258. The slides were exposed to black light for 20–60 min, incubated at 60°C for 2 hr, and stained in 4–10% Giemsa/Sorensen’s buffer.

[6] = tested on: MCF-10A; assay: as above; format: cell-based, human
Description: as §2, §3

[7] = tested on: MCF-10A; assay: Clonogenic survival assay; format: cell-based, human
Description: Clonogenic survival was assessed by colony counting at 9 days. […] Viable cells were scored and enumerated by trypan blue exclusion at 7 days. Means with SD are shown (MCF-10A: n = 3, primary T cell 1: n = 2). […] Fold increases of SCE per chromosome compared with no treatment or 0.5 μM cisplatin are shown for each cell type. Approximately 50 metaphases were counted for each cell. Error bars depict the mean with SD. Asterisks designate statistical significance for unpaired t-test at P < 0.0001. C. […] One hundred metaphases were counted for each exposure. Fold increases of chromatid-type aberrations per chromosome compared with no treatment or 0.5 μM cisplatin are shown for each cell type. The y-axis is the number of total chromatid-type aberrations per chromosome for each metaphase counted. Error bars indicate mean with SEM. The P-values were calculated using unpaired t-test.
as §2

[8] = tested on: cellular PARP activity in EBV-BL; assay: Cellular PARP activity assay (PAR levels, HT PARP In vivo Pharmacodynamic Assay); format: cell-based, human
Description: Cellular PARP activity was determined by measuring net PAR expression using HT PARP In vivo Pharmacodynamic Assay (Trevigen) as specified by the manufacturer. PAR levels in samples were calculated using standard curves and normalized using protein concentration. Protein concentration was measured with Lowry protocol using RC DC Protein Assay Kits (Bio-Rad).

[9] = tested on: BRCA-deficient mES cells; parameters: method as in PMID 15829967; conditions: cited from earlier work
[10] = tested on: primary T cell 1; assay: Chromosomal aberrations on metaphase spreads (Giemsa); format: cell-based, human; conditions: 0.5 μM cisplatin alone, 24 hr
Description: as §3

[11] = tested on: primary T cell 1; assay: Sister chromatid exchange (SCE) assay, BrdU differential staining; format: cell-based, human; conditions: 0.5 μM cisplatin alone, first 24hr
Description: as §2, §3

[12] = tested on: primary T cell 1; assay: Survival, trypan blue exclusion; format: cell-based, human; conditions: first 24 hr, trypan blue exclusion at 7 days, read-out: IC50 (survival), cisplatin alone
Description: A. […] Viable cells were scored and enumerated by trypan blue exclusion at 7 days. […] Approximately 50 metaphases were counted for each cell. Error bars depict the mean with SD. Asterisks designate statistical significance for unpaired t-test at P < 0.0001. C. […] One hundred metaphases were counted for each exposure. […] The y-axis is the number of total chromatid-type aberrations per chromosome for each metaphase counted. Error bars indicate mean with SEM. The P-values were calculated using unpaired t-test.

[13] = Homo sapiens, continuous exposure, clonogenic survival assay, read-out: IC50 (cell survival)

## NC(=O)c1ccc(I)c([N+](=O)[O-])c1 [BSI-201]
[1]; EBV-BL, read-out: IC50 (cell survival)
  IC50: 48.9 µM
[2]; Brca2^lex1/lex2 mES cells
  IC50: 70 µM
[2]; ratio of IC50, wild-type / Brca2^lex1/lex2
  enhanced sensitivity of cells lacking wild-type BRCA2 vs wild-type cells: 1.6 fold
[3]; Brca1^-/- 236.44 mES cells
  IC50: 74 µM
[3]; ratio of IC50, wild-type / Brca1^-/- 236.44
  enhanced sensitivity of cells lacking wild-type BRCA1 vs wild-type cells: 1.5 fold
[4]; wild-type E14 mES cells
  IC50: 111 µM
[5]; 20 μM
  Mean no. SCE / metaphase ± SD: 8.4 ± 3.6
[5]; 40 μM
  Mean no. SCE / metaphase ± SD: 9.4 ± 2.9
[5]; 80 μM
  Mean no. SCE / metaphase ± SD: 16.6 ± 4.2
[6]; 20 μM
  Mean no. SCE / metaphase ± SD: 7.9 ± 2.9
[6]; 40 μM
  Mean no. SCE / metaphase ± SD: 8.6 ± 2.9
[6]; 80 μM
  Mean no. SCE / metaphase ± SD: 9.4 ± 2.6
[7]; [13]
  IC50: 56 µM
[8]; EBV-BL, 24 hr, BSI-201 treated, vs untreated cells
  decrease of PARP activity: ~ 60%

## C[C@]1(c2nc3c(C(N)=O)cccc3[nH]2)CCCN1 [veliparib]
[1]; read-out: IC50 (cell survival), EBV-BL
  IC50: 42.5 µM
[2]
  IC50: 0.171 µM
[3]
  IC50: 0.0097 µM
[4]
  IC50: 1.6 µM
[5]; 1.5 μM
  Mean no. SCE / metaphase ± SD: 18.7 ± 4.6
[5]; 10 μM
  Mean no. SCE / metaphase ± SD: 32.2 ± 7.2
[6]; 1.5 μM
  Mean no. SCE / metaphase ± SD: 26.9 ± 6.6
[6]; 10 μM
  Mean no. SCE / metaphase ± SD: 51.3 ± 9.4
[7]; [13]
  IC50: 69.1 µM
[8]
  decrease of PARP activity: ~ 98% and > 99%

## O=C1CCC(=O)N1c1cc(Cc2n[nH]c(=O)c3ccccc23)ccc1F [KU0058684]
[9]
  sensitivity of BRCA-deficient mES cells: marked hypersensitivity

## N.N.[Cl][Pt][Cl] [cisplatin]
[10]
  Fold increase of chromatid-type aberrations per chromosome compared with no treatment: 2 fold
  total chromatid-type aberrations / metaphase (mean ± SEM): 0.38 ± 0.07
[10]; 100 metaphases
  chromatid-type gap/break: 36
  chromatid-type radial chromosome: 1
  chromatid-type telomere association: 0
  chromosome-type dicentric: 1
  chromosome-type gap/break: 6
  total chromatid-type aberrations: 38
[11]
  Fold increase of SCE per chromosome compared with no treatment: 3.8 fold
  Mean no. SCE / chromosome ± SD: 0.79 ± 0.23
  Mean no. SCE / metaphase ± SD: 36.6 ± 10.8
[6]; 0.5 μM cisplatin alone, 30 hr
  Fold increase of SCE per chromosome compared with no treatment: 6.3 fold
  Mean no. SCE / chromosome ± SD: 1.03 ± 0.12
  Mean no. SCE / metaphase ± SD: 47.7 ± 5.5
[7]; cisplatin first 30 hr, colony counting at 9 days, read-out: IC50 (survival), cisplatin alone
  IC50: 3.4 µM
[12]
  IC50: 1.74 µM

## O=C(c1cc(Cc2n[nH]c(=O)c3ccccc23)ccc1F)N1CCCNCC1 [KU0058948]
[9]
  sensitivity of BRCA-deficient mES cells: marked hypersensitivity
